Experimental findings from patent US20210186947A1, “TOMM6-INTERACTING EXTRACTS AND COMPOUNDS FOR USE IN THE TREATMENT AND PROPHYLAXIS OF NERVOUS SYSTEM DISEASES, ATHEROSCLEROSIS, HEPATITIS B INFECTION AND HUMAN PAPILLOMA VIRUS (HPV) INFECTION” (ETH ZURICH, priority 2018, published 2021) are described below.

The subject of series [1] is hyperphosphorylated PHF-Tau. Kind of series: Hippocampal hyperphosphorylated PHF-Tau in Tg2576 mice subjected to CUMS, binding assay with [125I]-labeled AT8 antibody. The format is in vivo. The settings on record: 15 months-old Tg2576 mice, 3 months of CUMS, treated during CUMS; compounds 10 mg/kg/d.
Series [2] relates to angiotensin II AT2 receptor (AT2R, AGTR2). Kind of series: AT2R protein aggregation assay in HEK cells, immunoblot. The class given is cell-based, human. The settings on record: 10 microM for 72 h. The procedure:
Proteins were also extracted from yeast cells and HEK cells expressing the indicated protein (i.e. HBsAg or AGTR2) as described above. Neuronal cell loss and hyperphosphorylated Tau in hippocampi of 15 months-old Tg2576 mice subjected to the CUMS protocol for 3 months was determined with crude homogenates of dissected hippocampi by direct binding assay with neuron-specific [^125I]-labeled anti-NeuN antibody (MAB377, clone A60, EMD Millipore, Merck KGaA, Darmstadt, Germany) and [^125I]-labeled AT8 antibody similarly as described (AbdAlla et al., J. Biol. Chem. 284, 6554-6565 (2009)).
In the second non-Abeta-based protein aggregation assay, different plant extracts were tested in a mammalian cell system, which analyzed the protein aggregation of the angiotensin II AT2 receptor (AT2R, AGTR2) protein in human embryonic kidney (HEK) cells. The system has physiological relevance because this cellular system is capable to reproduce AT2R protein aggregation, which also occurs in brains of AD patients and AD animal models (AbdAlla et al., J. Biol. Chem. 284, 6554-6565 (2009); AbdAlla et al., J. Biol. Chem. 284, 6566-6574 (2009)). The AT2 receptor in human embryonic kidney (HEK) cells forms stable dimers/oligomers under pro-oxidant conditions, which are resistant to urea-containing reducing SDS-PAGE (FIG. 2A, and AbdAlla et al., J. Biol. Chem. 284, 6566-6574 (2009)). […]

Series [3] concerns the target T1, Tomm6 (Mus musculus, UniProt Q9CQN3).
T1 construct: hippocampi were isolated from 5-10 aged Tg2576 mice, pulverized under liquid nitrogen and solubilized; from tissue; host or cells: hippocampus of Tg2576 mice
T1 sequence (Q9CQN3 1-74): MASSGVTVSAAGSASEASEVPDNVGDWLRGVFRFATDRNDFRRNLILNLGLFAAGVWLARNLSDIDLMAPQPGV
Nature of the series: Immunoblot detection of hippocampal Tomm6 protein in treated Tg2576 mice. The class given is in vivo. Background: Immunoblotting shows a protein as a band on a membrane.

The conditions of series [4]: mouse, in vivo, po, 100 mg/kg/day.
The test system of series [5] is hippocampal neuronal cell bodies (NeuN). Nature of the series: Hippocampal neuronal loss in Tg2576 mice subjected to CUMS, binding assay with [125I]-labeled anti-NeuN antibody. Particulars: 15 months-old Tg2576 mice, 3 months of CUMS, treated during CUMS; compounds 10 mg/kg/d. The class given is in vivo.
Series [6] is described as follows: Measurement of serum level in rats by HPLC. The format is in vivo, Sprague Dawley rats. The procedure:
(§1) Serum concentrations of alizarin were determined with serum isolated from the blood of male and female German shepherd dogs (age: 8-9 months) taken at different time points (0.5 h, 1 h, 2 h, 4 h, 6 h, 8 h, 24 h) after oral intake of the indicated doses for 4 weeks. In addition, serum concentrations of alizarin (Compound-1) were determined in male and female Sprague Dawley rats (body weight: 200-250 g) treated for 1 month and/or three months by oral gavage of alizarin at a once daily dose of 100 mg/kg, 50 mg/kg, 25 mg/kg and 12.5 mg/kg. Serum proteins were removed by acetonitrile precipitation, and alizarin was extracted by chloroform before separation on an HPLC-C18 column (Poroshell 120 EC-C18, 3.0×50 mm, Agilent) with an HPLC system (Agilent 1100 Series) and detection at OD245 nm. For quantitative determination of Compound-7 and Compound-10F in rat and dog serum, serum proteins were also removed by acetonitrile precipitation before HPLC analysis as detailed above and detection at OD254 nm.

The subject of series [7] is aggregated Agtr2. Nature of the series: ELISA of aggregated Agtr2 protein in PBMC of rats subjected to CUMS. The class given is in vivo, rats (Sprague Dawley). Particulars: aged rats, 4 weeks of CUMS, treated during CUMS. An excerpt:
More preferably, AGTR2 aggregation is detected with a sandwich ELISA. To this end the following steps can be performed: • (i) The first step of the sandwich ELISA is the immobilization of AGTR2-specific capture antibodies (any species, e.g. rabbit, rat, mouse, cameloid; serum, affinity-enriched; F(ab)2 fragments, nanobodies as generated in step (vi)) on an ELISA plate (Nunc Maxisorb), 0.1-10 microg/well, preferably 1-5 microg, more preferably, 1-2 microg in 100 microL of a suitable buffer (e.g. 0.1 M sodium acetate, 0.1 M NaCl, pH 5.5; or 15.9 mM Na2CO3, 35 mM NaHCO3, pH 9.6) by overnight incubation at 4° C. […] After the incubation time, unbound antibody is removed by washing steps (without Tween 20). • (v) Bound antibody is detected by a substrate reaction, which includes the addition of 50-400 microL, preferably 100-200 microL of substrate buffer (18 microL of 30% H2O2 added to 10.5 ml ABTS solution (22 mg ABTS dissolved in 100 ml of 50 mM sodium citrate, pH 4.0-pH 4.5). Any other substrate (e.g. is also feasible. After an incubation time of 1 min-5 h at 4° C.-37° C., preferably 30 min-1 h, more preferably 30 min at 37° C., optical density is measured at 410 nm, e.g. on a plate reader (Versa Max, Molecular Devices). […]
In general terms: In an ELISA, binding on a coated surface is turned into a signal by an enzyme label.

Series [8] can be described thus: Measurement of serum level in dogs by HPLC. The format is in vivo, German shepherd dogs. On the procedure: as §1
For series [9], the system named is Agtr2 (AT2R). Nature of the series: Immunoblot detection of Agtr2 in PBMCs of aged rats subjected to CUMS. The settings on record: 4 weeks of CUMS, treated during CUMS. The class given is in vivo, rats (Sprague Dawley).
Series [10] relates to hyperphosphorylated PHF tau. Kind of series: Hippocampal hyperphosphorylated PHF tau in aged rats subjected to CUMS, immunoblot. The class given is in vivo, rats (Sprague Dawley). The settings on record: 4 weeks of CUMS, 10 mg/kg/d during CUMS.
Series [11] is described as follows: Toxic adverse effects during 3 months of treatment of Tg2576 AD mice. Particulars: daily dose of 10 mg/kg. The format is in vivo.

As for `O=C(O)c1c(O)c(O)c2c(c1O)C(=O)c1ccccc1C2=O` [Compound-2, purpurin-3-carboxylic acid], the “hippocampal content of hyperphosphorylated PHF-Tau” value in series [1] was “inhibited hippocampal PHF-Tau hyperphosphorylation”. In series [2], the “aggregation of the AT2 receptor” value is “inhibited the aggregation of the AT2 receptor”. Besides, in series [3] (aged Tg2576 mice treated for 6 months), the “hippocampal protein content of Tomm6” value was “substantially increased”. Besides, the “daily food intake / food consumption” value in series [4] was “did not significantly alter”. Besides, the hippocampal neuronal loss result in series [5] is recorded as “prevented the CUMS-induced hippocampal neuronal loss”.

For `Cc1nc(CO)cc(-c2ccc(F)cc2)c1C(N)=O` [Compound-10F, 4-(4-fluorophenyl)-6-(hydroxymethyl)-2-methyl-pyridine-3-carboxamide], the “oral bioavailability / serum concentrations after oral intake” value in [6] (rats) and in series [8] was “had oral bioavailability” in each case. Moreover, the “oral doses required to achieve equivalent peak serum concentrations, higher in rats compared to dogs” value in series [6] (rats vs dogs) is recorded as “approximately 10 fold”. For the same molecule, in series [6] (rats, repeated once daily oral intake of 20 mg/kg/d), the “time of peak serum concentration” value turned out to be 1 h. Moreover, in [7], the “PBMC content of aggregated Agtr2 protein (ELISA)” value is “significantly retarded the CUMS-induced accumulation of Agtr2 aggregates”. The “hippocampal content of hyperphosphorylated PHF-Tau” value in [1] is “significantly inhibited the hippocampal accumulation of hyperphosphorylated PHF tau”. Also, the “PBMC content of monomeric Agtr2” value in series [9] is given as “significantly higher compared to untreated controls”. In addition, in series [9], the “accumulation of aggregated Agtr2 in PBMCs” value is recorded as “prevented the accumulation of aggregated Agtr2”. Moreover, the “hippocampal accumulation of hyperphosphorylated PHF tau” value in [10] is reported as “prevented the hippocampal accumulation of hyperphosphorylated PHF tau”. In addition, the “hippocampal Tomm6 protein content” value in series [3] (Tg2576 AD mice subjected to the CUMS protocol, treated during CUMS (10 mg/kg/d)) is recorded as “significantly higher”. In addition, in [11], the toxic adverse effects result is listed as “did not show any detectable toxic adverse effects”. The hippocampal neuronal loss result in series [5] was “retarded the CUMS-induced hippocampal neuronal loss”.
